These compounds were tested on ATF4 luciferase reporter in HEK293T cells (assay: ATF4-Luc assay (in vitro model of VWMD)). Settings: Homo sapiens, HEK-293T, 7 h, HEK293T cells carrying the ATF4 luciferase reporter, 1 μg/mL tunicamycin, One Glo luminescence.
Format: cell-based, human
How it was run: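 Tunicamycin (1 μg/mL) stress with co-added compound for 7 hours in HEK293T cells stably carrying an ATF4 5′-UTR–luciferase reporter. EC50 values come from the luminescent signal (One Glo).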

**Q.** How did the EC50 turn out when `O=C(NC12CC(n3cc(N4CC[C@@H](OC(F)(F)F)C4)cn3)(C1)C2)[C@H]1C[C@@H](O)c2cc(C(F)(F)F)ccc2O1` [Compound 579, (2R,4R)-4-hydroxy-N-(3-{4-[(3R)-3-(trifluoromethoxy)pyrrolidin-1-yl]-1H-pyrazol-1-yl}bicyclo[1.1.1]pentan-1-yl)-6-(trifluoromethyl)-3,4-dihydro-2H-1-benzopyran-2-carboxamide] was run?
**A.** < 0.01 µM

**Q.** How did the EC50 turn out when `O=C(NC12CC(n3cc(COCCOC(F)(F)F)nn3)(C1)C2)[C@H]1C[C@@H](O)c2cc(Cl)c(F)cc2O1` [Compound 467, (2R,4R)-6-chloro-7-fluoro-4-hydroxy-N-[3-(4-{[2-(trifluoromethoxy)ethoxy]methyl}-1H-1,2,3-triazol-1-yl)bicyclo[1.1.1]pentan-1-yl]-3,4-dihydro-2H-1-benzopyran-2-carboxamide] was run?
**A.** < 0.01 µM

**Q.** Which EC50 does the source give for `O=C(NC12CC(n3cc(-c4cnc(C(F)(F)F)c(F)c4)cn3)(C1)C2)[C@H]1C[C@@H](O)c2cc(Cl)ccc2O1` [Compound 347, (2R,4R)-6-chloro-N-(3-{4-[5-fluoro-6-(trifluoromethyl)pyridin-3-yl]-1H-pyrazol-1-yl}bicyclo[1.1.1]pentan-1-yl)-4-hydroxy-3,4-dihydro-2H-1-benzopyran-2-carboxamide] here?
**A.** < 0.01 µM

**Q.** For `COc1ncc(-c2cnn(C34CC(NC(=O)[C@H]5C[C@@H](O)c6cc(Cl)ccc6O5)(C3)C4)c2)cn1` [Compound 320, (2R,4R)-6-chloro-4-hydroxy-N-{3-[4-(2-methoxypyrimidin-5-yl)-1H-pyrazol-1-yl]bicyclo[1.1.1]pentan-1-yl}-3,4-dihydro-2H-1-benzopyran-2-carboxamide], which EC50 is on record?
**A.** 0.01 to 0.05 µM

**Q.** `O=C(COc1ccc(Cl)c(F)c1)NC12CCC(n3cc(OCCCOC(F)(F)F)cn3)(C1)C2` [Compound 630, 2-(4-chloro-3-fluorophenoxy)-N-(4-{4-[3-(trifluoromethoxy)propoxy]-1H-pyrazol-1-yl}bicyclo[2.1.1]hexan-1-yl)acetamide] was tested. Which EC50 did it give?
**A.** 0.05 to 0.25 µM

**Q.** How did the EC50 turn out when `COc1ccc2nn(C34CC(NC(=O)[C@H]5C[C@@H](O)c6cc(Cl)c(Cl)cc6O5)(C3)C4)cc2c1` [Compound 507, (2R,4R)-6,7-dichloro-4-hydroxy-N-[3-(5-methoxy-2H-indazol-2-yl)bicyclo[1.1.1]pentan-1-yl]-3,4-dihydro-2H-1-benzopyran-2-carboxamide] was run?
**A.** < 0.01 µM

**Q.** For `O=C(NC12CC(n3cc(C(=S)N4CC[C@H](OC(F)(F)F)C4)cn3)(C1)C2)[C@H]1C[C@@H](O)c2cc(Cl)ccc2O1` [Compound 390, (2R,4R)-6-chloro-4-hydroxy-N-(3-{4-[(3S)-3-(trifluoromethoxy)pyrrolidine-1-carbothioyl]-1H-pyrazol-1-yl}bicyclo[1.1.1]pentan-1-yl)-3,4-dihydro-2H-1-benzopyran-2-carboxamide], which EC50 is on record?
**A.** < 0.01 µM

**Q.** `O=C(NC12CC(n3cc(OCCOC(F)(F)F)cn3)(C1)C2)[C@@H]1CNc2cc(Cl)ccc2O1` [Compound 519, (2S)-6-chloro-N-(3-{4-[2-(trifluoromethoxy)ethoxy]-1H-pyrazol-1-yl}bicyclo[1.1.1]pentan-1-yl)-3,4-dihydro-2H-1,4-benzoxazine-2-carboxamide] was tested. Which EC50 did it give?
**A.** 0.01 to 0.05 µM

**Q.** For `O=C(NC12CC(n3cc(OCCOC(F)(F)F)cn3)(C1)C2)[C@H]1C[C@H](O)c2cc(Cl)c(Cl)cc2O1` [Compound 436, (2R,4S)-6,7-dichloro-4-hydroxy-N-(3-{4-[2-(trifluoromethoxy)ethoxy]-1H-pyrazol-1-yl}bicyclo[1.1.1]pentan-1-yl)-3,4-dihydro-2H-1-benzopyran-2-carboxamide], which EC50 is on record?
**A.** < 0.01 µM

**Q.** Which EC50 does the source give for `O=C(NC12CC(c3ccc(C(=O)N4CC[C@H](OC(F)(F)F)C4)cn3)(C1)C2)[C@H]1C[C@@H](O)c2cc(Cl)ccc2O1` [Compound 534, (2R,4R)-6-chloro-4-hydroxy-N-(3-{5-[(3S)-3-(trifluoromethoxy)pyrrolidine-1-carbonyl]pyridin-2-yl}bicyclo[1.1.1]pentan-1-yl)-3,4-dihydro-2H-1-benzopyran-2-carboxamide] here?
**A.** 0.01 to 0.05 µM

**Q.** Which EC50 does the source give for `O=C(NC12CC(n3cc(C[C@H]4C[C@@H](OC(F)(F)F)C4)cn3)(C1)C2)[C@H]1C[C@@H](O)c2cc(Cl)c(F)cc2O1` [Compound 532, (2R,4R)-6-chloro-7-fluoro-4-hydroxy-N-[3-(4-{[(1s,3R)-3-(trifluoromethoxy)cyclobutyl]methyl}-1H-pyrazol-1-yl)bicyclo[1.1.1]pentan-1-yl]-3,4-dihydro-2H-1-benzopyran-2-carboxamide] here?
**A.** < 0.01 µM

**Q.** Which EC50 does the source give for `O=C(NC12CC(c3cnc(OCCCOC(F)(F)F)o3)(C1)C2)[C@H]1C[C@@H](O)c2cc(Cl)ccc2O1` [Compound 415, (2R,4R)-6-chloro-4-hydroxy-N-(3-{2-[3-(trifluoromethoxy)propoxy]-1,3-oxazol-5-yl}bicyclo[1.1.1]pentan-1-yl)-3,4-dihydro-2H-1-benzopyran-2-carboxamide] here?
**A.** < 0.01 µM

**Q.** With `O=C(N[C@H]1CC[C@H](n2cc(N3CC[C@@H](OC(F)(F)F)C3)cn2)CC1)[C@H]1C[C@@H](O)c2cc(Cl)c(F)cc2O1` [Compound 582, (2R,4R)-6-chloro-7-fluoro-4-hydroxy-N-[(1R,4R)-4-{4-[(3R)-3-(trifluoromethoxy)pyrrolidin-1-yl]-1H-pyrazol-1-yl}cyclohexyl]-3,4-dihydro-2H-1-benzopyran-2-carboxamide] as the compound, how does the EC50 read?
**A.** 0.01 to 0.05 µM

**Q.** How did the EC50 turn out when `O=C(NC12CC(n3cc(-c4ccc(C(F)(F)F)cn4)cn3)(C1)C2)[C@H]1C[C@@H](O)c2cc(F)c(F)cc2O1` [Compound 553, (2R,4R)-6,7-difluoro-4-hydroxy-N-(3-{4-[5-(trifluoromethyl)pyridin-2-yl]-1H-pyrazol-1-yl}bicyclo[1.1.1]pentan-1-yl)-3,4-dihydro-2H-1-benzopyran-2-carboxamide] was run?
**A.** < 0.01 µM

**Q.** Which EC50 does the source give for `O=C(NC12CC(n3cc(OCCCOC(F)(F)F)cn3)(C1)C2)[C@H]1C[C@@H](O)c2cc(Cl)c(F)cc2O1` [Compound 433, (2R,4R)-6-chloro-7-fluoro-4-hydroxy-N-(3-{4-[3-(trifluoromethoxy)propoxy]-1H-pyrazol-1-yl}bicyclo[1.1.1]pentan-1-yl)-3,4-dihydro-2H-1-benzopyran-2-carboxamide] here?
**A.** < 0.01 µM

**Q.** Which EC50 does the source give for `O=C(NC12CC(n3cc(-c4ccc(C(F)(F)F)cn4)cn3)(C1)C2)[C@H]1C[C@@H](O)c2cc(Cl)c(F)cc2O1` [Compound 482, (2R,4R)-6-chloro-7-fluoro-4-hydroxy-N-(3-{4-[5-(trifluoromethyl)pyridin-2-yl]-1H-pyrazol-1-yl}bicyclo[1.1.1]pentan-1-yl)-3,4-dihydro-2H-1-benzopyran-2-carboxamide] here?
**A.** < 0.01 µM

**Q.** For `O=C(NC12CC(n3cc(CCCCOC(F)(F)F)nn3)(C1)C2)[C@H]1C[C@@H](O)c2cc(Cl)c(F)cc2O1` [Compound 466, (2R,4R)-6-chloro-7-fluoro-4-hydroxy-N-(3-{4-[4-(trifluoromethoxy)butyl]-1H-1,2,3-triazol-1-yl}bicyclo[1.1.1]pentan-1-yl)-3,4-dihydro-2H-1-benzopyran-2-carboxamide], which EC50 is on record?
**A.** < 0.01 µM

**Q.** Which EC50 does the source give for `O=C(NC12CC(n3cc([C@@H]4C[C@H]4COC(F)(F)F)nn3)(C1)C2)[C@H]1C[C@@H](O)c2cc(Cl)ccc2O1` (mixture of isomers) [Compound 542, (2R,4R)-6-chloro-4-hydroxy-N-[3-(4-{(1RS,2RS)-2-[(trifluoromethoxy)methyl]cyclopropyl}-1H-1,2,3-triazol-1-yl)bicyclo[1.1.1]pentan-1-yl]-3,4-dihydro-2H-1-benzopyran-2-carboxamide] here?
**A.** < 0.01 µM

**Q.** How did the EC50 turn out when `O=C(NC12CC(n3cc(C(=O)N4CCC(OC(F)(F)F)CC4)cn3)(C1)C2)[C@H]1C[C@@H](O)c2cc(Cl)ccc2O1` [Compound 366, (2R,4R)-6-chloro-4-hydroxy-N-(3-{4-[4-(trifluoromethoxy)piperidine-1-carbonyl]-1H-pyrazol-1-yl}bicyclo[1.1.1]pentan-1-yl)-3,4-dihydro-2H-1-benzopyran-2-carboxamide] was run?
**A.** 0.05 to 0.25 µM

**Q.** How did the EC50 turn out when `O=C(COc1ccc(Cl)c(F)c1)NC12CC(c3ccc(C(=O)N4CC[C@H](OC(F)(F)F)C4)nc3)(C1)C2` [Compound 603, 2-(4-chloro-3-fluorophenoxy)-N-(3-{6-[(3S)-3-(trifluoromethoxy)pyrrolidine-1-carbonyl]pyridin-3-yl}bicyclo[1.1.1]pentan-1-yl)acetamide] was run?
**A.** < 0.01 µM

**Q.** For `O=C(NC12CC(n3cc([C@H]4C[C@@H](OC(F)(F)F)C4)nn3)(C1)C2)[C@H]1C[C@@H](O)c2cc(Cl)c(F)cc2O1` [Compound 473, (2R,4R)-6-chloro-7-fluoro-4-hydroxy-N-(3-{4-[(1s,3S)-3-(trifluoromethoxy)cyclobutyl]-1H-1,2,3-triazol-1-yl}bicyclo[1.1.1]pentan-1-yl)-3,4-dihydro-2H-1-benzopyran-2-carboxamide], which EC50 is on record?
**A.** < 0.01 µM

**Q.** How did the EC50 turn out when `O=C(N[C@H]1CC[C@H](C(=O)N2CC(c3ccc(C(F)(F)F)cc3)C2)CC1)[C@H]1C[C@@H](O)c2cc(Cl)ccc2O1` [Compound 323, (2R,4R)-6-chloro-4-hydroxy-N-[trans-4-{3-[4-(trifluoromethyl)phenyl]azetidine-1-carbonyl}cyclohexyl]-3,4-dihydro-2H-1-benzopyran-2-carboxamide] was run?
**A.** < 0.01 µM

**Q.** For `O=C(NC12CC(n3cc(C(=O)N4CC[C@@H](OC(F)F)C4)cn3)(C1)C2)[C@H]1C[C@@H](O)c2cc(Cl)ccc2O1` [Compound 399, (2R,4R)-6-chloro-N-(3-{4-[(3R)-3-(difluoromethoxy)pyrrolidine-1-carbonyl]-1H-pyrazol-1-yl}bicyclo[1.1.1]pentan-1-yl)-4-hydroxy-3,4-dihydro-2H-1-benzopyran-2-carboxamide], which EC50 is on record?
**A.** 0.25 to 0.5 µM

**Q.** How did the EC50 turn out when `O=C(NC12CC(n3cc(-c4ccc(C5CC5)cn4)cn3)(C1)C2)[C@H]1C[C@@H](O)c2cc(Cl)ccc2O1` [Compound 570, (2R,4R)-6-chloro-N-{3-[4-(5-cyclopropylpyridin-2-yl)-1H-pyrazol-1-yl]bicyclo[1.1.1]pentan-1-yl}-4-hydroxy-3,4-dihydro-2H-1-benzopyran-2-carboxamide] was run?
**A.** < 0.01 µM

**Q.** How did the EC50 turn out when `O=C(NC12CC(n3cc(-c4cnc(C5CC5)nc4)cn3)(C1)C2)[C@H]1C[C@@H](O)c2cc(Cl)ccc2O1` [Compound 365, (2R,4R)-6-chloro-N-{3-[4-(2-cyclopropylpyrimidin-5-yl)-1H-pyrazol-1-yl]bicyclo[1.1.1]pentan-1-yl}-4-hydroxy-3,4-dihydro-2H-1-benzopyran-2-carboxamide] was run?
**A.** < 0.01 µM

— patent publication US20250145594A1, “MODULATORS OF THE INTEGRATED STRESS PATHWAY” (Calico Life Sciences LLC, priority 2020, published 2025)
